# According to ChEMBL document CHEMBL5346947, “Targeting the Estrogen Receptor for the Treatment of Breast Cancer: Recent Advances and Challenges” (J Med Chem, 2023):
# Columns and labels:
# MCF7 [1] = experiment: Antitumor activity against human MCF7 cells xenograft model assessed as tumor growth inhibition at 120 mg/kg relative to control; format: functional; details: read-out: TGI
# MCF7 [2] = experiment: Antitumor activity against human MCF7 cells xenograft model assessed as tumor growth inhibition at 30 mg/kg relative to control; format: functional; details: read-out: TGI
# MCF7 [3] = experiment: Antitumor activity against human MCF7 cells xenograft model assessed as tumor growth inhibition at 60 mg/kg relative to control; format: functional; details: read-out: TGI
# MCF7 [4] = experiment: Antitumor activity against human MCF7 cells xenograft model assessed as tumor growth inhibition at 90 mg/kg relative to control; format: functional; details: read-out: TGI
# [5] = Volume of distribution at steady state in cynomolgus monkey at 5 mg/kg, iv measured upto 24 hrs by LC-MS/MS analysis; format: ADME, organism-based, Macaca fascicularis; details: in vivo, read-out: Vdss
# [6] = Volume of distribution at steady state in Sprague-Dawley rat at 5 mg/kg, iv measured upto 24 hrs by LC-MS/MS analysis; format: ADME, organism-based; details: in vivo, read-out: Vdss
# [7] = Oral bioavailability in Sprague-Dawley rat at 10 mg/kg measured upto 24 hrs by LC-MS/MS analysis; format: ADME, organism-based; details: in vivo
# [8] = Half life in cynomolgus monkey at 5 mg/kg, iv measured upto 24 hrs by LC-MS/MS analysis; format: ADME, organism-based, Macaca fascicularis; details: in vivo
# [9] = Cmax in Sprague-Dawley rat at 10 mg/kg, po measured upto 24 hrs by LC-MS/MS analysis; format: ADME, organism-based; set-up: dose 10 mg/kg, time < 24 hrs, route po; details: in vivo
# [10] = Oral bioavailability in cynomolgus monkey at 10 mg/kg measured upto 24 hrs by LC-MS/MS analysis; format: ADME, organism-based, Macaca fascicularis; details: in vivo
# MCF7 [11] = experiment: Growth inhibition of human MCF7 cells; format: functional
# [12] = AUC in Sprague-Dawley rat at 10 mg/kg, po measured upto 24 hrs by LC-MS/MS analysis; format: ADME, organism-based; set-up: time < 24 hrs, dose 10 mg/kg, route po; details: in vivo
# [13] = Cmax in cynomolgus monkey at 10 mg/kg, po measured upto 24 hrs by LC-MS/MS analysis; format: ADME, organism-based, Macaca fascicularis; set-up: time < 24 hrs, dose 10 mg/kg, route po; details: in vivo
# [14] = Clearance in cynomolgus monkey at 5 mg/kg, iv measured upto 24 hrs by LC-MS/MS analysis; format: ADME, organism-based, Macaca fascicularis; details: in vivo
# [15] = AUC in cynomolgus monkey at 10 mg/kg, po measured upto 24 hrs by LC-MS/MS analysis; format: ADME, organism-based, Macaca fascicularis; set-up: dose 10 mg/kg, time < 24 hrs, route po; details: in vivo
# [16] = Half life in Sprague-Dawley rat at 5 mg/kg, iv measured upto 24 hrs by LC-MS/MS analysis; format: ADME, organism-based; details: in vivo
# [17] = target: T1, Progesterone receptor (Homo sapiens) (UniProt P06401); experiment: Inhibition of PGR transcription in human MCF7 harboring ERalpha […] mutant measured upto 96 hrs by qPCR analysis relative to control; format: cell-based
# T1 sequence (whole entry): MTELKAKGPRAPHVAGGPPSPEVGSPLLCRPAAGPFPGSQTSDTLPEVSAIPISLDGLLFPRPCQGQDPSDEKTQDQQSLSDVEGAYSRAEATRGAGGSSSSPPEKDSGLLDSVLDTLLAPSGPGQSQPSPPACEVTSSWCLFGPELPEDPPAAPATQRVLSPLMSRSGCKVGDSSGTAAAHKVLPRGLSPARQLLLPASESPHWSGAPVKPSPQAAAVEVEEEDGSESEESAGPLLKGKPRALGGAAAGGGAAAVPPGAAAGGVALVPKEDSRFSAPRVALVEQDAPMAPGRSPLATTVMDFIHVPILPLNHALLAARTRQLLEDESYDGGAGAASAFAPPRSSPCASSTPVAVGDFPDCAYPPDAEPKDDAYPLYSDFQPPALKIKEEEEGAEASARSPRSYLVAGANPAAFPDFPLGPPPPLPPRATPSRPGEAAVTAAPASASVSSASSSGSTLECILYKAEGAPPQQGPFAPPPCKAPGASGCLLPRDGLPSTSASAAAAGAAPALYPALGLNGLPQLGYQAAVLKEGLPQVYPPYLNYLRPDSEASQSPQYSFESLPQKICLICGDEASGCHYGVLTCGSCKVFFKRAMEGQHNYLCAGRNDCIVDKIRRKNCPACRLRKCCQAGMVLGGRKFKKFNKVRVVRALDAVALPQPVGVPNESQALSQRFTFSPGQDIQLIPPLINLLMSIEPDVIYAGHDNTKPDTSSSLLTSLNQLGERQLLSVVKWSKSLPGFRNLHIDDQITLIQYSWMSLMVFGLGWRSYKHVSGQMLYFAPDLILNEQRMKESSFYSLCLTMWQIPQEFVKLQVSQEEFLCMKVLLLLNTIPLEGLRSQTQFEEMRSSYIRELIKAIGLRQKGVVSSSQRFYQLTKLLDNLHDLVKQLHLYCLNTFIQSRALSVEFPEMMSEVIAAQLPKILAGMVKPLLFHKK
# MCF7 [18] = experiment: Antiproliferative activity against human MCF7 cells harboring wild type ERalpha assessed as inhibition of cell growth incubated for 6 to 7 days by high content imaging assay; format: functional, cell-based
# [19] = target: T1, Progesterone receptor (Homo sapiens); experiment: Inhibition of PGR transcription in human MCF7 harboring wild type ERalpha measured upto 96 hrs by qPCR analysis relative to control; format: cell-based
# MCF7 [20] = experiment: Antiproliferative activity against human MCF7 cells harboring ERalpha Y537N mutant assessed as inhibition of cell growth incubated for 6 to 7 days by high content imaging assay; format: functional, cell-based
# [21] = Antitumor activity in tamoxifen-resistant human MCF7 cells xenografted in 17beta-estradiol-treated NOD/SCID mouse model assessed as tumor growth inhibition at 60 mg/kg, po QD for 28 days relative to control; format: functional; details: tamoxifen-resistant MCF7 cell, 672 h, time 28 day, read-out: TGI
# [22] = Antitumor activity in tamoxifen-resistant human MCF7 cells xenografted in 17beta-estradiol-treated NOD/SCID mouse model assessed as tumor growth inhibition at 30 mg/kg, po QD for 28 days in the presence of palbociclib at 60 mg/kg relative to control; format: functional; details: tamoxifen-resistant MCF7 cell, 672 h, time 28 day, read-out: TGI
# MCF7 [23] = experiment: animal or person; details: Mus musculus, MCF7, po, 672 h, read-out: TGI
# Description: Antitumor activity in human MCF7 cells xenografted in 17beta-estradiol-treated NOD/SCID mouse model assessed as tumor growth inhibition at 30 mg/kg, po QD for 28 days in the presence of palbociclib at 60 mg/kg relative to control
# [24] = target: T2, Protein cereblon/Estrogen receptor (Homo sapiens) (UniProt P03372+Q96SW2); experiment: Protac activity at E3 ubiquitin-protein ligase/ERalpha in human MCF7 cells xenografted in 17beta-estradiol-treated NOD/SCID mouse model assessed as reduction in ERalpha degradation at 3 mg/kg and measured after 18 hrs post last dose relative to control; format: organism-based; set-up: scale not given: the % may be the effect or the level left
# [25] = AUC (0-24hrs) in human MCF7 cells xenografted in 17beta-estradiol-treated NOD/SCID mouse model at 10 mg/kg, po and measured after 18 hrs post last dose; details: in vivo
# [26] = Cmax in human MCF7 cells xenografted in 17beta-estradiol-treated NOD/SCID mouse model at 30 mg/kg, po and measured after 18 hrs post last dose; details: in vivo
# [27] = Antitumor activity in tamoxifen-resistant human MCF7 cells xenografted in 17beta-estradiol-treated NOD/SCID mouse model assessed as tumor growth inhibition at 30 mg/kg, po QD for 28 days relative to control; format: functional; details: tamoxifen-resistant MCF7 cell, 672 h, time 28 day, read-out: TGI
# [28] = AUC (0-24hrs) in human MCF7 cells xenografted in 17beta-estradiol-treated NOD/SCID mouse model at 30 mg/kg, po and measured after 18 hrs post last dose; details: in vivo
# [29] = target: T2, Protein cereblon/Estrogen receptor (Homo sapiens); experiment: Protac activity at E3 ubiquitin-protein ligase/ERalpha in human MCF7 cells xenografted in 17beta-estradiol-treated NOD/SCID mouse model assessed as reduction in ERalpha degradation at 30 mg/kg, po and measured after 18 hrs post last dose relative to control; set-up: scale not given: the % may be the effect or the level left
# [30] = AUC (0-24hrs) in human MCF7 cells xenografted in 17beta-estradiol-treated NOD/SCID mouse model at 3 mg/kg, po and measured after 18 hrs post last dose; details: in vivo
# [31] = Cmax in human MCF7 cells xenografted in 17beta-estradiol-treated NOD/SCID mouse model at 10 mg/kg, po and measured after 18 hrs post last dose; details: in vivo
# [32] = Cmax in human MCF7 cells xenografted in 17beta-estradiol-treated NOD/SCID mouse model at 3 mg/kg, po and measured after 18 hrs post last dose; details: in vivo
# MCF7 [33] = experiment: animal or person; details: Mus musculus, MCF7, 336 h, read-out: TGI
# Description: Antitumor activity in human MCF7 cells xenografted in 17beta-estradiol-treated NOD/SCID mouse model assessed as tumor growth inhibition at 200 mg/kg, sc BIW for 2 weeks in the presence of palbociclib at 60 mg/kg relative to control
# [34] = target: T2, Protein cereblon/Estrogen receptor (Homo sapiens); experiment: Protac activity at E3 ubiquitin-protein ligase/ERalpha in human MCF7 cells xenografted in 17beta-estradiol-treated NOD/SCID mouse model assessed as reduction in ERalpha degradation at 10 mg/kg, po and measured after 18 hrs post last dose relative to control; set-up: scale not given: the % may be the effect or the level left
# MCF7 [35] = experiment: animal or person; details: Mus musculus, MCF7, 18 h, read-out: TGI
# Description: Antitumor activity in human MCF7 cells xenografted in 17beta-estradiol-treated NOD/SCID mouse model assessed as tumor growth inhibition at 30 mg/kg, sc and measured after 18 hrs post last dose
# MCF7 [36] = experiment: animal or person; details: Mus musculus, MCF7, po, 672 h, read-out: TGI; remark: listed apart in the source
# Description: Antitumor activity in human MCF7 cells xenografted in 17beta-estradiol-treated NOD/SCID mouse model assessed as tumor growth inhibition at 30 mg/kg, po QD for 28 days relative to control
# MCF7 [37] = experiment: animal or person; details: Mus musculus, MCF7, 18 h, read-out: TGI; remark: listed apart in the source
# Description: Antitumor activity in human MCF7 cells xenografted in 17beta-estradiol-treated NOD/SCID mouse model assessed as tumor growth inhibition at 10 mg/kg, sc and measured after 18 hrs post last dose
# T2 sequence (P03372 whole entry, looked up): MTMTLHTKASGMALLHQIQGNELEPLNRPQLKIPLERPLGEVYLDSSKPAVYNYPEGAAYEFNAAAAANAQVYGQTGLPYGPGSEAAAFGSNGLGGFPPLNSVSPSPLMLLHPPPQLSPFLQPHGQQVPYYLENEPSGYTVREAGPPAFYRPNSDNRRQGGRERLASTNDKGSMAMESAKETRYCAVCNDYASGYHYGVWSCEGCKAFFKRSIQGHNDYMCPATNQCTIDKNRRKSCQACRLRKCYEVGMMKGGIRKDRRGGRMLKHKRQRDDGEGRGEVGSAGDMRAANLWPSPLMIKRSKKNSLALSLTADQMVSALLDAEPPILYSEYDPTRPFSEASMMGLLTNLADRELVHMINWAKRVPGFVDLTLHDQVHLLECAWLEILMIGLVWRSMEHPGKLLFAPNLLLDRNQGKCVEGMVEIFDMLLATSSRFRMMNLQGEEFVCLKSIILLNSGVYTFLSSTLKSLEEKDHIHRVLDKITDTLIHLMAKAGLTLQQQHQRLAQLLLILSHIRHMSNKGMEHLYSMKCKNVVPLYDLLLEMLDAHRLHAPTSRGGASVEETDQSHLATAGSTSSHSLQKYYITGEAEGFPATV
# T2 sequence (Q96SW2 whole entry, looked up): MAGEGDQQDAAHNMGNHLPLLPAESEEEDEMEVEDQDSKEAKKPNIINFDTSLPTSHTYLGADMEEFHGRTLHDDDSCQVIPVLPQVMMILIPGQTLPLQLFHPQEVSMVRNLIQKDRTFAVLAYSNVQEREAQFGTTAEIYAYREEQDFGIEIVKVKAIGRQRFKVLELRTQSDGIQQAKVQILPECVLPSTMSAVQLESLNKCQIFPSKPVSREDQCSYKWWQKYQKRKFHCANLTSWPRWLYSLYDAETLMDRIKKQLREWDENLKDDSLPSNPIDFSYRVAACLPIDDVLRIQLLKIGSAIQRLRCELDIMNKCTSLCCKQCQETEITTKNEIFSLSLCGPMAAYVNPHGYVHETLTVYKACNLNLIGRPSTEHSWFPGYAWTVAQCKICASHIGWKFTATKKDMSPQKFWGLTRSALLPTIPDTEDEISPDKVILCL
structure (smiles),measurement,setting,value
CCNCCc1ccc(CN(CC)c2cc(OC)ccc2[C@@H]2CCc3cc(O)ccc3C2)cc1 [ELACESTRANT],inhibition in vivo at 120 mg/kg,MCF7 [1],96%
same,inhibition in vivo at 30 mg/kg,MCF7 [2],66%
same,inhibition in vivo at 60 mg/kg,MCF7 [3],88%
same,inhibition in vivo at 90 mg/kg,MCF7 [4],97%
CN(C)C(=O)/C=C/CNCCOc1ccc(/C(=C(/CC(F)(F)F)c2ccccc2)c2ccc3[nH]nc(F)c3c2)cn1 [H3B-6545 FREE BASE],Vd,[5],3 L/kg
same,Vd,[6],1.2 L/kg
same,F,[7],6.2%
same,half-life,[8],4 h
same,Cmax,[9],1200 ng/mL
same,bioavailability,[10],26%
same,GI50,MCF7 [11],0.3 nM
same,AUC,[12],14200 ng·h/mL
same,Cmax,[13],420 ng/mL
same,clearance,[14],18.2 mL/min/kg
same,AUC at 24 h,[15],2500 ng·h/mL
same,half-life,[16],2.3 h
Oc1ccc2c3c(cnc2c1)-c1ccc(C(F)(F)F)cc1O[C@@H]3c1ccc(OCCN2CC(CF)C2)cc1 [IMLUNESTRANT],inhibition,[17],> 75%
same,IC50,MCF7 [18],3 nM
same,inhibition,[19],> 75%
same,IC50,MCF7 [20],17 nM
CC(=O)c1c(C)c2cnc(Nc3ccc(N4CCNCC4)cn3)nc2n(C2CCCC2)c1=O [PALBOCICLIB],inhibition in vivo at 60 mg/kg,[21],91%
O=C1CC[C@H](N2Cc3cc(N4CCN(CC5CCN(c6ccc([C@@H]7c8ccc(O)cc8CC[C@@H]7c7ccccc7)cc6)CC5)CC4)ccc3C2=O)C(=O)N1 [VEPDEGESTRANT],inhibition in vivo at 30 mg/kg,[22],113%
same,inhibition in vivo at 30 mg/kg,MCF7 [23],131%
same,Activity,[24],95%
same,AUC(0-t) at 18 h,[25],2540 ng·h/mL
same,Cmax,[26],962 ng/mL
same,inhibition in vivo at 30 mg/kg,[27],65%
same,AUC(0-t) at 18 h,[28],5720 ng·h/mL
same,Activity,[29],94%
same,AUC(0-t) at 18 h,[30],658 ng·h/mL
same,Cmax,[31],312 ng/mL
same,Cmax,[32],84 ng/mL
same,inhibition in vivo at 200 mg/kg,MCF7 [33],108%
same,Activity,[34],97%
same,inhibition in vivo at 30 mg/kg,MCF7 [35],124%
same,inhibition in vivo at 30 mg/kg,MCF7 [36],105%
same,inhibition in vivo at 10 mg/kg,MCF7 [37],98%
